{"source": "paper PMC10541198", "about": "“Specific quinone reductase 2 inhibitors reduce metabolic burden and reverse Alzheimer’s disease phenotype in mice” (The Journal of Clinical Investigation, 2023)", "tested_on": "Iba1", "assay": "IHC of Iba1 (microglia activation) in 5xFAD brain sections", "type": "in vivo, mouse", "settings": "for Iba1 normalized volume (individual mice): CA1, 5xFAD 1 month; for Figure 9D, IHC signal: individual animals; for Iba1 vs vehicle: cortex, 5xFAD 1 month", "excerpt": "Following the behavioral experiments, we assessed brain pathologies associated with AD present in the 5xFAD mice ([37]). Therefore, 5 days following the last behavioral experiment, and 1 month after the start of YB-537 consumption, mice were sacrificed, and coronal brain sections were used for IHC. Since the CA1 region of the hippocampus is affected during AD pathogenesis ([37]), and this brain region is involved in the behavioral paradigms used here, we acquired images of CA1. This was done with an Olympus IX83 confocal microscope using the same settings, antibodies, and exposures in all mice. Images were analyzed using Imaris (Bitplane; see methods). For each mouse, 3 coronal sections were used per antibody. In each section, the same region of CA1 was acquired, using the same image frame size and resolution, at all possible depths of the section — using a Z-stack of the whole section — to allow measurement of the fluorescent antibody marker volume, which was normalized to the brain volume from which it was taken. First, we measured oxidative stress, as indicated by 4-HNE ([38]) (Abcam, ab48506).\nPerfused and fixed brain slices were blocked with 10% normal donkey serum (DNS) and 0.2% triton (Sigma-Aldrich) in PBS. Antibodies, including 4-HNE (AbCam, ab48506), Iba1 (AbCam, ab5076), AT-8 (Thermo, MN1020), Amyloid β (AbCam, ab201060), diluted in PBS with 10% DNS, were incubated at 4°C overnight. Secondary antibodies including donkey-anti-goat Alexa Fluor 568 (AbCam, ab175704), donkey-anti-mouse Cy 5 (Jackson Immuno Research, 715-175-151), and donkey-anti-rabbit DyLight 488 (AbCam, ab98488) all diluted 1:500 in PBS with 1% BSA, were applied to the slices at RT for 2 hours the next day. Slices were mounted onto glass slides using DAPI containing Vectashield (H-1200). Images were taken using a confocal microscope (Olympus IX83). Three slices were used per mouse per antibody. Tiling images of the dorsal CA1 and cortex (Bregma: –1.58mm to –2.30mm) were taken using ×20 objective, acquiring a Z-stack of the whole section. Analysis of the images was done blind by an experimenter unaware of the experimental conditions or details, using Imaris (Bitplane) software. A surface reconstruction module was used to extract the data as volumes of the used markers (4-HNE, phospho-tau, amyloid β, GFAP, and Iba1). Marker volume and intensity were normalized to the corresponding brain volume. The normalized value was averaged for each triplicate and presented here. […]\nBrains were then briefly removed and placed in chilled, 4% PFA for 48 h, f oll owe d by immersion in 30% sucrose in 0.1 M PBS for a furt her 48 h. Bra i ns wer e t h e n stored at -80°C, until t he y were sliced into 40µm coronal sections usinga Lei ca CM 1950cryostat. Sli ces were then washed x3 in PBS and bl oc ke d for 1 h at RT using 10% normal donkey serum (DNS) and 0.2% triton (Sigma-Aldrich) in PBS. Antibodies, including 4- HNE (1:500, AbCam, ab48506), Iba1 (1:2,000, AbCam, ab5076), GFAP (Abcam, ab53554), phospho- tau (1:1,000, Thermo, MN1020) and amyloid β (1:1,000, AbCam, ab201060) diluted in PBS with 10% DNS were incubated at 4°C overnight. The next day, the slices were washed x3 times in PBS, and secondary antibodies including donkey anti goat A l e x a Fluor 568 (AbCam, ab175704), donkey anti-mouse Cy 5 (Jackson Immuno Research, 715- 175- 151) and donkey anti-rabbit DyLight 488 (AbCam, ab98488) all diluted 1:500 in PBS with 1% BSA, were applied to the slices at RT for 2 h. Following the incubation, the slices were washed x3 times in PBS, mounted onto gl ass slides, were uniformly covered in DAPI containing Vectashield (H-1200) and coverslips were a dde d. […]", "note": "Where “and” joins values, the source holds several entries; their conditions need not be identical. Identical values can stand only once."}
{"smiles": "Cc1ccc(-c2cn3cccc(C)c3n2)cc1S(=O)(=O)N1CCNCC1", "note": "[YB-537]", "values": [{"measurement": "Iba1 normalized volume (individual mice)", "setting": "Females", "value": "0.0305 and 0.0266 and 0.0346 and 0.0314 and 0.0200 and 0.0191 and 0.0158"}, {"measurement": "Iba1 normalized volume (individual mice)", "setting": "Males", "value": "0.0473 and 0.0384 and 0.0542 and 0.0369 and 0.0352 and 0.0318 and 0.0209 and 0.0414 and 0.0362"}, {"measurement": "Iba1 normalized volume (individual mice)", "setting": "Males + Females", "value": "0.0473 and 0.0384 and 0.0542 and 0.0369 and 0.0352 and 0.0314 and 0.0200 and 0.0191 and 0.0158 and 0.0305 and 0.0266 and 0.0346 and 0.0318 and 0.0209 and 0.0414 and 0.0362"}, {"measurement": "Figure 9D, IHC signal", "setting": "Cortex", "value": "0.0209 and 0.0186 and 0.0218 and 0.0206 and 0.0305 and 0.0198 and 0.0227"}, {"measurement": "Figure 9D, IHC signal", "setting": "Hippocampus", "value": "0.0213 and 0.0206 and 0.0202 and 0.0175 and 0.0174 and 0.0220 and 0.0296 and 0.0197"}, {"measurement": "Iba1 vs vehicle", "setting": "females", "value": "significantly reduced"}, {"measurement": "Iba1 vs vehicle", "setting": "males", "value": "insignificantly reduced"}, {"measurement": "Iba1 vs vehicle", "setting": "total population", "value": "significantly reduced"}]}
